In ChEMBL document CHEMBL1152560, “Substituted 2-arylbenzothiazoles as kinase inhibitors: hit-to-lead optimization” (Bioorg Med Chem, 2009) one finds residual activity data, which are given here for three molecules.

Test [1] has as its target Serine/threonine-protein kinase 26 (Homo sapiens) (UniProt Q9P289). The experiment in a line: Residual activity of MST4 at 1 uM by microplate scintillation counting.
Test [2] has as its target Receptor tyrosine-protein kinase erbB-2 (Homo sapiens, UniProt P04626). The experiment in a line: Residual activity of ERBB2 at 10 uM by microplate scintillation counting.
The target of test [3] is PAS domain-containing serine/threonine-protein kinase (Homo sapiens) (UniProt Q96RG2). The test can be described thus: Residual activity of PASK at 1 uM by microplate scintillation counting.
Test [4] addresses Serine/threonine-protein kinase Nek6 (Homo sapiens) (UniProt Q9HC98). The experiment in a line: Residual activity of NEK6 at 0.1 uM by microplate scintillation counting.
In test [5] the target is Focal adhesion kinase 1 (Homo sapiens) (UniProt Q05397). The test can be described thus: Residual activity of FAK at 10 uM by microplate scintillation counting.
For test [6], the target named is T1, NUAK family SNF1-like kinase 1 (Homo sapiens) (UniProt O60285).
T1 sequence (whole entry): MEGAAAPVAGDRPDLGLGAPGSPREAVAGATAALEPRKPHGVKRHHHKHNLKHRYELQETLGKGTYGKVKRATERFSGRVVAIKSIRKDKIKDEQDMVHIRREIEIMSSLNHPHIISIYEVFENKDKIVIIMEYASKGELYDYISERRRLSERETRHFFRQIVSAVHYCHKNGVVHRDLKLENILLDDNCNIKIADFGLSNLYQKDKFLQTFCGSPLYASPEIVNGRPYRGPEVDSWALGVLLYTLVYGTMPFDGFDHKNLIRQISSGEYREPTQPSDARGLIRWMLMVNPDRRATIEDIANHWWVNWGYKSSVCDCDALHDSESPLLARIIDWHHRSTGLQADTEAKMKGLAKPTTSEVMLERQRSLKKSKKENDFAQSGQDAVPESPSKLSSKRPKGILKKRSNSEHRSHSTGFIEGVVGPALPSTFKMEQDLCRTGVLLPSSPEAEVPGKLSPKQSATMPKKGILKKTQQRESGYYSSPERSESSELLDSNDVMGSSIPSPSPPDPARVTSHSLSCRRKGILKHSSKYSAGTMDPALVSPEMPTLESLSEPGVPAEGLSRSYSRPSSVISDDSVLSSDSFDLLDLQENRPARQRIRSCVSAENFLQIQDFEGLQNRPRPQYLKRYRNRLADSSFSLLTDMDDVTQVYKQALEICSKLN
The experiment in a line: Residual activity of ARK5 at 10 uM by microplate scintillation counting.

Test [7] addresses T2, Beta-adrenergic receptor kinase 1 (Homo sapiens) (UniProt P25098).
T2 sequence (whole entry): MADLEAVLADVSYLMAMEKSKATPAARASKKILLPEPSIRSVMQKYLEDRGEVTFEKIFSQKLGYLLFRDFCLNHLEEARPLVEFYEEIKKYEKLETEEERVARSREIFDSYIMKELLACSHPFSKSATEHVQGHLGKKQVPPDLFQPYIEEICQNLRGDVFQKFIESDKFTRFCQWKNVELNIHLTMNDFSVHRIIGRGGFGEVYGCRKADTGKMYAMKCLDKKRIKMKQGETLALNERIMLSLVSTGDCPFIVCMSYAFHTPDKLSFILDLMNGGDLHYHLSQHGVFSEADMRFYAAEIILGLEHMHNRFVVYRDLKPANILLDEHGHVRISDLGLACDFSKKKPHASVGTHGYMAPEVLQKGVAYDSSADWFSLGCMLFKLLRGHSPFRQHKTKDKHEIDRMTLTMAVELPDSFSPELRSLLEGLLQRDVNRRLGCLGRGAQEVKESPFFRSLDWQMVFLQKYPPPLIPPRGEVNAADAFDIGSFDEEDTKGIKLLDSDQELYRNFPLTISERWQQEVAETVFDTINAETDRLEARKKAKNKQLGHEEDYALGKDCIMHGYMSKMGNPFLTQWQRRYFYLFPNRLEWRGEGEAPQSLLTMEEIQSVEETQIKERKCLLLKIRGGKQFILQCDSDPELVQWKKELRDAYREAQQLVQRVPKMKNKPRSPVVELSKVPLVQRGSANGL
The experiment in a line: Residual activity of GRK2 at 1 uM by microplate scintillation counting.

The target in test [8] is Death-associated protein kinase 1 (Homo sapiens) (UniProt P53355). The experiment in a line: Residual activity of DAPK1 at 1 uM by microplate scintillation counting.
Test [9] concerns the target T3, Tyrosine-protein kinase ITK/TSK (Homo sapiens) (UniProt Q08881).
T3 sequence (whole entry): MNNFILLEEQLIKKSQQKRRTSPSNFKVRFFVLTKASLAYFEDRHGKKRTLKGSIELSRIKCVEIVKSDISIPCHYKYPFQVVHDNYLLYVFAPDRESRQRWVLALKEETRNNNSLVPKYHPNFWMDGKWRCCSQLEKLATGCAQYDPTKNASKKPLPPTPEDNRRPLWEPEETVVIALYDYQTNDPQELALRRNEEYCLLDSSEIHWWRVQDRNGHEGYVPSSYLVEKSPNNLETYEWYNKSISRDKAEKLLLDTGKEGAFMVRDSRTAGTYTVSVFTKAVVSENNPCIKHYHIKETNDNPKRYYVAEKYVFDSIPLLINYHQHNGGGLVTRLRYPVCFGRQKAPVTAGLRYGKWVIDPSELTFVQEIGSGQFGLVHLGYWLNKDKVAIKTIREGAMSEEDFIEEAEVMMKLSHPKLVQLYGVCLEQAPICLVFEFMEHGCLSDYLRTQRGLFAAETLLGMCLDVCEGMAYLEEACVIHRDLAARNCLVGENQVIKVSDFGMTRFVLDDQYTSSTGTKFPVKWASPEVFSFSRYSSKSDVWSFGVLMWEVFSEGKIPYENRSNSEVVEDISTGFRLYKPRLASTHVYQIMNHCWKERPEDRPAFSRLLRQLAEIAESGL
The test can be described thus: Residual activity of ITK at 0.1 uM by microplate scintillation counting.

The target in test [10] is Wee1-like protein kinase (Homo sapiens) (UniProt P30291). The test can be described thus: Residual activity of WEE1 at 1 uM by microplate scintillation counting.

Sequence of Receptor tyrosine-protein kinase erbB-2 (P04626 whole entry, the tested form may be a part): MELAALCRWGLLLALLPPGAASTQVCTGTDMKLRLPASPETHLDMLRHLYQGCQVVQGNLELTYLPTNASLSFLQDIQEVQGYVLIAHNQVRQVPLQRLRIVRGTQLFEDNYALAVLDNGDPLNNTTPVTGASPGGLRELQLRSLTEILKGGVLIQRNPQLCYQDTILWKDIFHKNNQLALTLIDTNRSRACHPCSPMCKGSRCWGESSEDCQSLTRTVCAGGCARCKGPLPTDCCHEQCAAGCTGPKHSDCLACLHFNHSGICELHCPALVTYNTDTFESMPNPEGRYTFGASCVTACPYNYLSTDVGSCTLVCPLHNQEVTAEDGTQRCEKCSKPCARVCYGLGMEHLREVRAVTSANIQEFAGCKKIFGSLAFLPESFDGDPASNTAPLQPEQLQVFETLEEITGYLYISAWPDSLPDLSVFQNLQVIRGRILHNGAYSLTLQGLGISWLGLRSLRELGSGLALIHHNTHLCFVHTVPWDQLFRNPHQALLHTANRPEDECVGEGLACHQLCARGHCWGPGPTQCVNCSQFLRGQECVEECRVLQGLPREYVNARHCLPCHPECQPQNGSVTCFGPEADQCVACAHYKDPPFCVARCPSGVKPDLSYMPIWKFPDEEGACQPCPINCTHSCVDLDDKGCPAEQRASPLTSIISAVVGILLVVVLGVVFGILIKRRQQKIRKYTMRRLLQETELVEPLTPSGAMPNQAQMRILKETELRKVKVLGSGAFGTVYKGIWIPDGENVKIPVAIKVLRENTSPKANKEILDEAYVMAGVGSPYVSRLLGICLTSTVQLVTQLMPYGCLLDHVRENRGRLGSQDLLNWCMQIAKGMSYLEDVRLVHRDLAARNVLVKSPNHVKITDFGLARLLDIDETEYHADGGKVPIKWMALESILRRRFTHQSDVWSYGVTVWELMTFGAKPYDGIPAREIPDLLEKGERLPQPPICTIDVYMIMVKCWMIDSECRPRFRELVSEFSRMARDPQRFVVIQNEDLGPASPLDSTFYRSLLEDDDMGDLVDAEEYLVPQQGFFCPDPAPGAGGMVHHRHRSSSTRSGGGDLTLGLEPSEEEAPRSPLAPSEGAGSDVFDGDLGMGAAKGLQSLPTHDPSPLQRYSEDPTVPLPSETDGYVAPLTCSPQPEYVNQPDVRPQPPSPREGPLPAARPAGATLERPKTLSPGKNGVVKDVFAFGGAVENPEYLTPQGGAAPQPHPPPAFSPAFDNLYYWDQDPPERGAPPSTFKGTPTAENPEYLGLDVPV
Sequence of Serine/threonine-protein kinase 26 (Homo sapiens) (Q9P289 2-416 limits assumed): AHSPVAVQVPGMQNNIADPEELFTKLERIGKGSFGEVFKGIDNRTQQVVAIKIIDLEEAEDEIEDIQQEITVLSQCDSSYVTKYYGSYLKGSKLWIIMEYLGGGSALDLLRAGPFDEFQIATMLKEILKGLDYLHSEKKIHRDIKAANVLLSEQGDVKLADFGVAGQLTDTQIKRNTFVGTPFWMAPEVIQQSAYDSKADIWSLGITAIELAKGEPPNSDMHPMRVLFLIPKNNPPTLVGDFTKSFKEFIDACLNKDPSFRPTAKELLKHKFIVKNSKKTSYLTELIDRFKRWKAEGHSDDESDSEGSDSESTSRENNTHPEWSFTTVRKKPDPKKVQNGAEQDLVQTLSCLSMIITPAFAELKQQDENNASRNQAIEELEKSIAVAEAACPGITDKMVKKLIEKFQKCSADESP
Sequence of Death-associated protein kinase 1 (Homo sapiens) (P53355 whole entry, looked up): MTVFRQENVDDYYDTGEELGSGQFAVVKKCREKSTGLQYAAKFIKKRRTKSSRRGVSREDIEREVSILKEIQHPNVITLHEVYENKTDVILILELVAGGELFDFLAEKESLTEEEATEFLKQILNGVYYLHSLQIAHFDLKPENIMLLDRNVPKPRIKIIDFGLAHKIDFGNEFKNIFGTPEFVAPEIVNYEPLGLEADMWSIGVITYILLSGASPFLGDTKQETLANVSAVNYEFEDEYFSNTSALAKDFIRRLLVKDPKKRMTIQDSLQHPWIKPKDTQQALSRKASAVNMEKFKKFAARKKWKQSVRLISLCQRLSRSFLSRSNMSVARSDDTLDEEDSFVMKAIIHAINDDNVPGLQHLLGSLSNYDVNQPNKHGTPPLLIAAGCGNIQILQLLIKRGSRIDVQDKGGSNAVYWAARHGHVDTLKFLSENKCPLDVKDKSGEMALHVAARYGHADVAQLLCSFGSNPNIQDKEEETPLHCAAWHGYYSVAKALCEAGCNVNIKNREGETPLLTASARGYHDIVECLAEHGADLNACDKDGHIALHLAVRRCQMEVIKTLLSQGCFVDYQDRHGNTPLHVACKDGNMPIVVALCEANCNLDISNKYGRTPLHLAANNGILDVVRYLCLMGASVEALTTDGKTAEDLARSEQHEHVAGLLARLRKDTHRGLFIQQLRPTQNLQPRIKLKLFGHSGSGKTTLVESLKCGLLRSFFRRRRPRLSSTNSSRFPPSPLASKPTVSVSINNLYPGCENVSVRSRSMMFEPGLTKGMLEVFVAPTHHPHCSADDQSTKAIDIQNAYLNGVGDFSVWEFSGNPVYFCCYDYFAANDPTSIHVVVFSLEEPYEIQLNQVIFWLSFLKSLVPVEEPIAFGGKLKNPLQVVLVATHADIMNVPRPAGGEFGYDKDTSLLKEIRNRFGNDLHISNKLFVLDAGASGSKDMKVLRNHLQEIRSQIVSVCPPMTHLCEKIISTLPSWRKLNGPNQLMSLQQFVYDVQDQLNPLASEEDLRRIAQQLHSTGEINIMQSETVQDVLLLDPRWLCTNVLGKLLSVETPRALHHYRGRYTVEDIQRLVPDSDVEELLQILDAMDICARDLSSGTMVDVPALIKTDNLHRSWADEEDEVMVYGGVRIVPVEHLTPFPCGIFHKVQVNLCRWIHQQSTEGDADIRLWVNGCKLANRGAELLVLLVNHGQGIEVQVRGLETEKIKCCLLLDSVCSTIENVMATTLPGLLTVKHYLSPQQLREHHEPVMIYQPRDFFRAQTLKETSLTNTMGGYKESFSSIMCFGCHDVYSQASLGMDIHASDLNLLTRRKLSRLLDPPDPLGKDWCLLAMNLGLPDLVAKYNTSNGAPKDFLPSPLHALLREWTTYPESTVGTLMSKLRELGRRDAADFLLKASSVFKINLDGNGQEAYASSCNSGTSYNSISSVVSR
Sequence of Focal adhesion kinase 1 (Homo sapiens) (Q05397 2-1052 limits assumed): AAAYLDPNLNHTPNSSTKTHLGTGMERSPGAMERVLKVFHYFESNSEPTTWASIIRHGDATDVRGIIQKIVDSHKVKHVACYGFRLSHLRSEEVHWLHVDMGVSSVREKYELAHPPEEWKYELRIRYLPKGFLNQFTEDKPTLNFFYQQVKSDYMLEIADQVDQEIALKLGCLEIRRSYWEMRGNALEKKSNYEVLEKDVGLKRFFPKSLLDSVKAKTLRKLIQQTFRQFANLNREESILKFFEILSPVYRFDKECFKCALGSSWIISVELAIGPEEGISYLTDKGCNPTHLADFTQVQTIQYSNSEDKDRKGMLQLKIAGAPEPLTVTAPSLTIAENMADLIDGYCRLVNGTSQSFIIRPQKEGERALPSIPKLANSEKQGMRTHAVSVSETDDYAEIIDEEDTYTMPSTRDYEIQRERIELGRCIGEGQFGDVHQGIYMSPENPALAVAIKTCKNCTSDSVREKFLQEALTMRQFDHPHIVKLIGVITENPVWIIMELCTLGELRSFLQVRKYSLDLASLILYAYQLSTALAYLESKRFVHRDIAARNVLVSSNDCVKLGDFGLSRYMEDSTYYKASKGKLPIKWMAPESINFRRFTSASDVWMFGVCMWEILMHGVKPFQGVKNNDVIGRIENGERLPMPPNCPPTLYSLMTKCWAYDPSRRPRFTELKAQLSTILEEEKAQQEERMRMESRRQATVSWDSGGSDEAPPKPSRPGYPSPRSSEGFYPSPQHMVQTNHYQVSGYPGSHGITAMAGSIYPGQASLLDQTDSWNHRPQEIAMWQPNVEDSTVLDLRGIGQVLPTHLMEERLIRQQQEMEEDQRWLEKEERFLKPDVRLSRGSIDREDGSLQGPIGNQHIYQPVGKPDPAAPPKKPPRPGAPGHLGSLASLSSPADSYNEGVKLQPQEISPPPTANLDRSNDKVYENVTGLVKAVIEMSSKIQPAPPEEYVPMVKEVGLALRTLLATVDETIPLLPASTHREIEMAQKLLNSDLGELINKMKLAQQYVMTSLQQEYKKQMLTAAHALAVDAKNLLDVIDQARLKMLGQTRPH
Sequence of Serine/threonine-protein kinase Nek6 (Homo sapiens) (Q9HC98 whole entry): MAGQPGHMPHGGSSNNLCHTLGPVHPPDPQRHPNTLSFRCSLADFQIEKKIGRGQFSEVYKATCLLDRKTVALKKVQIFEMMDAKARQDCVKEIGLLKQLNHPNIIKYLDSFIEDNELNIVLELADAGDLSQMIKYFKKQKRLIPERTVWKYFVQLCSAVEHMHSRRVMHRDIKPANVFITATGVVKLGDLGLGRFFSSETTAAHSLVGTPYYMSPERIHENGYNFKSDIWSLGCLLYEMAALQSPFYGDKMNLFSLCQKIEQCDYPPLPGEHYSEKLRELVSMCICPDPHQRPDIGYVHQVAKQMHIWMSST

As for `COc1cc2c(Oc3ccc(-c4nc5ccccc5s4)cc3)ncnc2cc1OCCCN1CCCC1`, the residual activity in [1] came out at 98%; in test [2], 110%; in [3], 94%; in test [4], 93%; in [5] it was 93%; in test [6] it was 109%. The residual activity in [7] stood at 97%; in test [8] it was 86%; in test [9], 98%; in test [10], 84%.

Take `COc1cc2c(Oc3ccc(-c4nc5ccccc5s4)cc3F)ncnc2cc1OCCCN1CCN(C)CC1`: the residual activity in [1] was found to be 109%; in test [2] it was 62%; in test [3], 83%; in [4] it was 98%; in test [5], 84%; in [6], 139%. For the same molecule, the residual activity was 85% in test [7], 90% in test [8], 107% in test [9] and 101% in test [10].

For `COc1cc2c(Oc3ccc(-c4nc5ccccc5s4)cc3)ncnc2cc1OCCCN1CCN(C)CC1`, the residual activity turned out to be 109% in test [1]; 91% in [2]; 88% in [3]; 93% in test [4]; 93% in test [5]; 127% in [6]. Also, the residual activity in test [7] worked out at 105%; in test [8], 81%; in test [9], 99%; in [10], 99%.
